Experimental data reported in patent US5559092A, “Cosmetic composition” (Chesebrough-Pond's USA Co. Division of Conopco, Inc., priority 1992, dated 1996).
“Also recorded” adds a separate entry of the source.

Tests used:
[1] = tested on: isolated human hair follicles; assay: in vitro hair follicle growth test (elongation of isolated human hair follicles in culture medium); assay type: cell-based
Description: The effect of compounds on hair growth was assessed using an in vitro test which measures the elongation of isolated human hair follicles in a culture medium.
This test includes the important step of isolating hair follicles having an undamaged hair bulb from human skin, for example, facelift skin, by microdissection.
The critical step of separating the hair follicle with intact undamaged hair bulb from the subcutaneous fatty tissue in which it is situated accordingly involves severing the hair shaft of the follicle at a point below the epidermis of skin surface, so as to leave the hair bulb intact and undamaged while still bearing a portion of the hair shaft.
Preferably, the hair shaft of the follicle is severed at the dermal-subcutaneous fat interface.
Any suitable cutting instrument can be employed to sever the hair shaft in this manner, but a keratotome or a scalpel are preferred.
The hair bulb with a hair Shaft stump attached is then isolated from the skin by mechanically separating the hair from loosely adhering subcutaneous fat which normally surrounds the hair bulb. This is achieved after the dermis or upper layer of the skin has been separated and removed, to avoid damaging the hair bulb as it is pulled away.
The hair bulb together with hair shaft stump attached, is then transferred in an otherwise undamaged and fully functioning, viable state to a nutrient medium.
The hair follicles isolated by the technique described herein are transferred to a suitable culture medium for subsequent testing of substances that can then influence their future development.
The procedure now to be described represents a preferred method of culture and testing of hair growth.
In accordance with the preferred method of culture, isolated hair follicles, […], are maintained in 1 ml of Williams E medium, either with or without a test hair growth substance, supplemented with […] (Penicillin and Streptomyein), Insulin (10 ng/ml) and Hydrocortisone (10 ng/ml). The medium was incubated at 37° C. in an atmosphere of 5% CO2 +95% air in individual wells of a 24 multiwell dish (Corning), which permits detailed measurements to be made of the length of individual hair follicles. The medium was refreshed once during the experiment after 4 days.
Williams E medium is available from FLOW Laboratory under Catalogue No. 12-502. […]
Daily growth rate and cumulative growth for each follicle were calculated by measuring the change in length of the follicles each day and from this the average of all the follicles was calculated.
The response of an isolated hair follicle to a test substance, can accordingly be assessed by measuring the increase in length, if any, in the presence of a test substance against a control. […]

[2] = storage stability in aqueous hair treatment composition (shampoo, conditioner or tonic); assay type: physicochemical; settings: ambient temperature, 3 months
Text: From these observations, it was realised that the αNH2 group of glutamine should be protected in order to stablise the molecule.

[3] = 2 mM in Williams E medium & glucose

Structure (SMILES): NC(=O)CC[C@H](N)C(=O)O [Glutamine, glutamine]
- Amount of hair grown in one week [1, 3]: 2.02 mm
- Average daily rate of growth of hair over one week [1, 3]: 0.277 mm/d
- potency as hair growth promoter after storage ([1]; after 3 months storage at 20° C.): diminished significantly
- effect on linear hair growth (in words) ([1]; isolated human follicles in vitro, compared with the control): potent promoter of linear hair growth; also recorded: significant increase in hair growth
- stability during storage in aqueous hair treatment composition [2]: a significant amount of the glutamine had been converted to pyroglutamic acid and ammonia
